This assay addresses T1, FGF18 (Homo sapiens, UniProt O76093).
T1 construct: residues 50-194 of the 207-residue precursor (signal peptide 1-27 absent), expressed in Escherichia coli, purified
T1 sequence (O76093 50-194): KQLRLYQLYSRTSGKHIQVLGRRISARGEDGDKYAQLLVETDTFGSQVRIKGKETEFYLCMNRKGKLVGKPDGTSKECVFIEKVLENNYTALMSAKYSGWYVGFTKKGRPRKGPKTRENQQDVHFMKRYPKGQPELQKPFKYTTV
Put plainly: isothermal titration calorimetry. In kind it is binding. To be noted: size-defined heparin oligosaccharide, sulfation pattern not stated; error exceeds the value; read-out: affinity. (In general: In ITC the heat of successive injections is recorded.)

Take heparin oligosaccharides of 6 dp: the Kd came out at 2200 nM.
